Each structure is given as a SMILES string. Read-outs that look alike come from different tables or passages of the source.

Common to all, as to assay type: cell-based
The test system of one test is human CD4+ T cells. As to the kind of experiment: Cytokines produced by human CD4+ T cells stimulated with PMA/ionomycin. To be noted: 10 μM compound, PMA/ionomycin 20 h. From the text: Freshly isolated human peripheral blood mononuclear cells (PBMCs) were purchased from Astarte Biologics (Redmond, Wash.). CD4+ T cells were isolated from the PBMCs using the EasySep Negative Selection Human CD4+ T Cell Enrichment Kit (Stemcell Technologies, Vancouver, Canada) according to manufacturer's instructions briefly as follows: Unwanted cells were specifically labeled with a cocktail of bispecific tetrameric antibody complexes (TAC) against dextran and cell surface antigens (CD8, CD14, CD16, CD19, CD20, CD36, CD56, CD66b, CD123, TCRγ/δ, glycophorin A). Labeled cells were then targeted for removal by incubation with dextran-coated magnetic particles, leaving the desired CD4+ T cells.
Human CD4+ T cells, isolated as shown in protocol A, were seeded at 2e6 cells/ml in RPMI 1640 containing 10% (v/v) charcoal-dextran treated, heat inactivated FBS (Omega Scientific, Tarzana, Calif.), 0.05 mM 2-Mercaptoethanol (Sigma-Aldrich, St. Louis, Mo.), and 1×Pen/Strep Amphotericin B (Lonza, Allendale, N.J.). Cells were pre-treated with test compounds (10 μM) for 1 h at 37° C. in a humidified atmosphere at 5% CO2. Cells were then stimulated with 50 ng/ml phorbol 12-myristate 13-acetate (PMA)(Sigma-Aldrich, St. Louis, Mo.)+1 μg/ml ionomycin (Life Technologies, Grand Island, N.Y.) for 20 h at 37° C. in a humidified atmosphere at 5% CO2. Supernatant was collected and analyzed using Bio-Plex Pro Human Th17 Cytokine 15-Plex Panel (Bio-Rad Laboratories, Hercules, Calif.) as per manufacturer's protocols. Magnetic beads were read on the Bio-Plex MAGPIX multiplex reader instrument using the accompanying xPONENT 4.2 acquisition software (Bio-Rad Laboratories, Hercules, Calif.). Data were analyzed via the Bio-Plex Manager software v6.1 (Bio-Rad Laboratories).
IL-1β, IL-2, IL-7, and IL-12 (p70) were below the limit of detection under conditions used. The concentrations of the observed analytes of the DMSO control, from top to bottom as listed, are as follows: 31, 585, 24178, 22, 48, 91, 728, 94, 156, 705, 15, 1045, 5501 pg/ml.

Test [1] deals with immortalized normal human bronchial epithelial BEAS-2B cells. Description: IL-17A- or IL-17F-mediated cytokine response by BEAS-2B cells. To be noted: 48 h. The protocol:
The virally immortalized, normal human bronchial epithelial cell line BEAS-2B was purchased from ATCC (Manassas, Va.). Primary bronchial epithelial cells isolated from a patient diagnosed with asthma were obtained from Lonza (Allendale, N.J.). Both cells were maintained in complete Bronchial Epithelial Cell Growth Medium (BEGM) (Lonza). Cells were seeded at 1e5 cells/ml and incubated at 37° C. in a humidified atmosphere at 5% CO2 overnight to adhere. Cells were pre-treated with test compounds (10 μM down by ⅕ in a 3- or 4-point serial dilution series) for 1 h at 37° C. in a humidified atmosphere at 5% CO2. DMSO at a final concentration of 0.1% served as the non-inhibited control. Budesonide (Selleck Chemicals, Houston, Tex.), a clinically approved glucocorticoid steroid for the treatment of asthma, was tested as a positive control at 0.25 μM. Cells were stimulated with 50 ng/ml of either human recombinant IL-17A or IL-17F (eBioscience, San Diego, Calif.), for 48 h. Supernatant was then collected and analyzed for cytokine concentrations using the Bio-Plex Pro Human Cytokine 17-Plex Panel (Bio-Rad Laboratories, Hercules, Calif.) according to the manufacturer's instructions. Magnetic beads were measured on the Bio-Plex MAGPIX multiplex reader instrument using the accompanying xPONENT 4.2 acquisition software (Bio-Rad Laboratories). Data were analyzed via the Bio-Plex Manager software v6.1 (Bio-Rad Laboratories). For the primary asthmatic bronchial epithelial cells, five (+IL-17F) to thirteen (+IL-17A) cytokines were in range of detection under the conditions used. […] Select cytokines were analyzed for comparison using the BEAS-2B cell line.

The subject of test [2] is diseased primary human lung fibroblasts. As to the kind of experiment: Cytokine response by primary diseased human lung fibroblasts stimulated with IL-17A or IL-17F. The note with it: Fibroblast, 48 h. As to the method: Primary lung fibroblasts isolated from a patient diagnosed with asthma were obtained from Lonza (Allendale, N.J.) and maintained in FGM-2 fibroblast growth medium (Lonza). Cells were seeded at 1e5 cells/ml and incubated at 37° C. in a humidified atmosphere at 5% CO2 overnight to adhere. Cells were pre-treated with test compounds (10 μM down by ⅕ in a 3- or 4-point serial dilution series) for 1 h at 37° C. in a humidified atmosphere at 5% CO2. DMSO at a final concentration of 0.1% served as the non-inhibited control. Cells were stimulated with 50 ng/ml of either human recombinant IL-17A or IL-17F (eBioscience, San Diego, Calif.), for 48 h. Supernatant was then collected and analyzed for cytokine concentrations using the Bio-Plex Pro Human Cytokine 17-Plex Panel (Bio-Rad Laboratories, Hercules, Calif.) according to the manufacturer's instructions. Magnetic beads were measured on the Bio-Plex MAGPIX multiplex reader instrument using the accompanying xPONENT 4.2 acquisition software (Bio-Rad Laboratories). Data were analyzed via the Bio-Plex Manager software v6.1 (Bio-Rad Laboratories). Only four (+IL-17F) to six (+IL-17A) cytokines were in range of detection under the conditions used.
G-CSF concentrations were below the limit of detection when cells were stimulated with IL-17F.

Setting [3] is: +50 ng/ml IL-17A, read-out: EC50 values (μM), IL-6.
[4] abbreviates: +50 ng/ml IL-17A, read-out: EC50 values (μM), IL-8.
Where [5] appears, read: +50 ng/ml IL-17F, read-out: EC50 values (μM), IL-6.
Setting [6] is: +50 ng/ml IL-17F, read-out: EC50 values (μM), IL-8.

Take `CCOc1cc(C(=O)N2CCC(N3CCN(C)CC3)CC2)ccc1Nc1cc2c(cn1)N(C)C(=O)c1ccccc1N2C` [Compound 61]: the inhibition at 10 µM with human CD4+ T cells (read-out: Percent inhibition of G-CSF (relative to DMSO control)) was 25.3%; with human CD4+ T cells (read-out: Percent inhibition of GM-CSF (relative to DMSO control)) it was 96.6%; in the test with human CD4+ T cells (read-out: Percent inhibition of IFNγ (relative to DMSO control)) it was -11.8%; in the test with human CD4+ T cells (read-out: Percent inhibition of IL-4 (relative to DMSO control)), -7.7%; in the test with human CD4+ T cells (read-out: Percent inhibition of IL-5 (relative to DMSO control)), 21.9%; in the test with human CD4+ T cells (read-out: Percent inhibition of IL-6 (relative to DMSO control)), 85.8%. Moreover, the inhibition at 10 µM with human CD4+ T cells (read-out: Percent inhibition of IL-10 (relative to DMSO control)) turned out to be 97.6%; in the test with human CD4+ T cells (read-out: Percent inhibition of IL-13 (relative to DMSO control)), 0.6%; with human CD4+ T cells (read-out: Percent inhibition of IL-17A (relative to DMSO control)), 45.4%; in the test with human CD4+ T cells (read-out: Percent inhibition of MCP-1 (relative to DMSO control)) it was 65.5%; with human CD4+ T cells (read-out: Percent inhibition of MIP-1β (relative to DMSO control)), 59.2%; with human CD4+ T cells (read-out: Percent inhibition of TNFα (relative to DMSO control)), 50.9%. Also, the EC50 came out at 0.68 µM in test [1] (setting [3]); 0.42 µM in test [1] (setting [4]); 0.42 µM in test [1] (setting [5]); 0.51 µM in test [1] (setting [6]); 1.99 µM in test [2] (+50 ng/ml IL-17A, read-out: EC50 values (μM), G-CSF); 6.98 µM in test [2] (setting [3]). Besides, the EC50 was 0.54 µM in test [2] (setting [4]); 1.33 µM in test [2] (+50 ng/ml IL-17A, read-out: EC50 values (μM), MCP-1); 4.45 µM in test [2] (setting [5]); 0.45 µM in test [2] (setting [6]); 1.57 µM in test [2] (+50 ng/ml IL-17F, read-out: EC50 values (μM), MCP-1).

For the origin of these results see US20170008888A1 (KYORIN PHARMACEUTICAL CO., LTD., priority 2014, published 2017).
